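96-well plates; 48 h exposure; 5 concentrations. Endpoints by linear interpolation between flanking doses. Not reached: highest tested concentration assigned. The concentration for 50% growth inhibition is given as GI50. TGI: concentration producing complete growth inhibition.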
Columns and labels:
Assay in all cases: DTP human tumour cell line panel, 48 h
UACC-257 melanoma = test system: UACC-257 melanoma
OVCAR-8 ovarian = test system: OVCAR-8 ovarian
NCI-H23 lung = test system: NCI-H23 lung
EKVX NSCLC = test system: EKVX NSCLC
CCRF-CEM leukemia = test system: CCRF-CEM leukemia
HCT-15 colon = test system: HCT-15 colon
SK-MEL-2 melanoma = test system: SK-MEL-2 melanoma
SK-OV-3 ovarian = test system: SK-OV-3 ovarian
HS 578T breast = test system: HS 578T breast
NCI/ADR-RES ovarian = test system: NCI/ADR-RES ovarian
MCF7 breast = test system: MCF7 breast

| SMILES | TGI (UACC-257 melanoma) [µM] | TGI (OVCAR-8 ovarian) [µM] | TGI (NCI-H23 lung) [µM] | TGI (EKVX NSCLC) [µM] | TGI (CCRF-CEM leukemia) [µM] | TGI (HCT-15 colon) [µM] | TGI (SK-MEL-2 melanoma) [µM] | TGI (SK-OV-3 ovarian) [µM] | TGI (HS 578T breast) [µM] | GI50 (NCI/ADR-RES ovarian) [µM] | TGI (NCI/ADR-RES ovarian) [µM] | GI50 (EKVX NSCLC) [µM] | TGI (MCF7 breast) [µM] | GI50 (HCT-15 colon) [µM] | GI50 (MCF7 breast) [µM] | GI50 (HS 578T breast) [µM] |
| --- | --- | --- | --- | --- | --- | --- | --- | --- | --- | --- | --- | --- | --- | --- | --- | --- |
| NC(=O)CCC(N=C(N)c1csc(C2OC(CO)C(O)C2O)n1)C(=O)O (stereo not drawn) | > 100 | > 100 | > 100 | > 100 | > 100 | > 100 | > 100 | > 100 |  |  |  |  |  |  |  |  |
| COC1C=COC2(C)Oc3c(C)c(O)c4c(O)c(c(/C=N/N5CCN(N)CC5)c(O)c4c3C2=O)NC(=O)C(C)=CC=CC(C)C(O)C(C)C(O)C(C)C(OC(C)=O)C1C (stereo not drawn) | > 100 | > 100 | > 100 | > 100 | 47.9 | > 100 | > 100 | > 100 |  |  |  |  |  |  |  |  |
| CCOC(=O)c1c(Cl)nc2ccccc2c1N=[N+]=[N-] | 53.4 |  | > 100 | > 100 | > 100 | 34.6 | 71.5 | > 100 | 77.8 |  |  |  |  |  |  |  |
| CCCC(=O)NC1CCc2cc(OC)c(OC)c(OC)c2-c2ccc(OC)c(=O)cc21 (stereo not drawn) |  | > 100 |  | > 100 | > 100 | 25.5 | > 100 |  |  | 3.2 | > 100 | > 100 | > 100 | 0.011 |  |  |
| C1=C(c2ccccc2)Nc2nnnn2C1c1ccccc1 (stereo not drawn) | > 100 | > 100 | > 100 |  | 0.0305 | 37.7 | > 100 | > 100 | > 100 |  | > 100 |  | 84.6 |  |  |  |
| O=S(=O)(O)c1ccc(N=Nc2c(O)ccc3cc(Br)ccc23)cc1 | > 100 | > 100 | > 100 | > 100 | > 100 | > 100 | > 100 | > 100 | > 100 |  | > 100 |  |  |  |  |  |
| S=C1CC(c2ccccc2)Sc2ccccc2N1 (stereo not drawn) | > 100 | > 100 | > 100 | > 100 | > 100 | > 100 |  | > 100 | > 100 |  | > 100 |  | > 100 |  |  |  |
| [O-][n+]1ccccc1S | 64.4 | > 100 | > 100 | > 100 |  | > 100 | 9.13 | > 100 | 56.4 | 5.17 | > 100 |  | > 100 |  | 1.93 | 2.91 |
| C/C=C/C1=CC(=O)C(O)C1O (stereo not drawn) | 97.4 | 79.9 | > 77.9 | 148 | 103 | 97.2 | 133 | 130 |  |  | 66.1 |  | 122 |  |  |  |
| CC(=O)NC(c1nc2cc(C)c(C)cc2[nH]1)c1nc2cc(C)c(C)cc2[nH]1 | 71.1 | 47.5 | > 100 | 84.8 | 37 | 60 | > 100 | 71.9 | 79.2 |  | 89.2 |  | > 100 |  |  |  |

— PubChem BioAssay (NCI)
